How the values were obtained:
[1] = system: individual with hip pain and lower back pain associated with spinal fusion surgery; assay: Case report: post laminectomy syndrome; type: in vivo, humans; details: glycerol tincture, ingested
Procedure: An individual with hip pain and lower back pain associated with spinal fusion surgery was administered a glycerol tincture containing the cannabidiol anion.

[2] = system: individual who presented with chronic pain; assay: Case report: chronic pain; type: in vivo, humans; details: glycerol tincture
Procedure: An individual who presented with chronic pain was administered a glycerol tincture containing the cannabidiol anion.

[3] = system: individual who presented with knee pain associated with inflammation caused by trauma from a fall; assay: Case report: knee pain; type: in vivo, humans; details: glycerol tincture, ingested
Procedure: An individual who presented with knee pain associated with inflammation caused by trauma from a fall was administered a glycerol tincture containing the cannabidiol anion.

[4] = system: individual who presented with back pain associated with driving for prolonged periods of time; assay: Case report: acute back pain; type: in vivo, humans; details: glycerol tincture, ingested
Procedure: An individual who presented with back pain associated with driving for prolonged periods of time was administered a glycerol tincture containing the cannabidiol anion.

[5] = system: individual who presented with social anxiety associated with presenting at business meetings; assay: Case report: social anxiety; type: in vivo, humans; details: beverage containing the anion, before presenting
Procedure: An individual who presented with social anxiety associated with presenting at business meetings was administered a beverage containing the cannabidiol anion before presenting.

[6] = system: individual who presented with hip pain associated with sitting; assay: Case report: chronic hip pain; type: in vivo, humans; details: glycerol tincture, ingested
Procedure: An individual who presented with hip pain associated with sitting was administered a glycerol tincture containing the cannabidiol anion.

[7] = system: individual with arthritis; assay: Case report: arthritis; type: in vivo, humans; details: glycerol tincture
Procedure: An individual who was unable to fill […] hydroxychloroquine prescription to treat the arthritis during the COVID-19 pandemic was administered a glycerol tincture containing the cannabidiol anion.

[8] = system: individual who presented with cancer pain caused by throat cancer; assay: Case report: cancer pain; type: in vivo, humans; details: water containing the anion, ingested
Procedure: An individual who presented with cancer pain caused by throat cancer was administered water containing the cannabidiol anion (2-[6-isopropenyl-3-methylcyclohex-2-enyl]-3-hydroxy-5-pentylphenolate).

[9] = system: individuals with anxiety; assay: Case reports: anxiety; type: in vivo, humans
Procedure: An individual was administered a beverage containing the cannabidiol anion prior to driving to an airport to catch a flight that was scheduled to leave within thirty minutes of the arrival at the airport.
An individual who suffers from chronic anxiety was administered a glycerol tincture containing the cannabigerol anion.

[10] = system: individual who presented with chronic back pain associated with standing; assay: Case report: chronic back pain; type: in vivo, humans; details: glycerol tincture, ingested
Procedure: An individual who presented with chronic back pain associated with standing was administered a glycerol tincture containing the cannabidiol anion.

[11] = system: dog that suffers from chronic seizures; assay: Case report: epilepsy in a dog; type: in vivo; details: glycerol tincture immediately after the onset of a seizure
Procedure: A dog that suffers from chronic seizures was administered a glycerol tincture containing the cannabidiol anion immediately after the onset of a seizure.

[12] = system: individual who presented with cramping and restless legs syndrome; assay: Case report: cramping and restless legs syndrome; type: in vivo, humans; details: glycerol tincture before sleep
Procedure: An individual who presented with cramping and restless legs syndrome was administered a glycerol tincture containing the cannabidiol anion before sleep.

[13] = system: individual who presented with peripheral neuropathy; assay: Case report: peripheral neuropathy; type: in vivo, humans; details: glycerol formulation, topical
Text: An individual who presented with peripheral neuropathy topically administered a glycerol formulation containing the cannabigerol anion.

[14] = system: individual who presented with Crohn's disease; assay: Case report: Crohn's disease; type: in vivo, humans; details: glycerol tincture
Procedure: An individual who presented with Crohn's disease was administered a glycerol tincture containing the cannabigerol anion.

[15] = system: individual who presented with chronic insomnia; assay: Case report: insomnia; type: in vivo, humans; details: glycerol tincture before sleep
Procedure: An individual who presented with chronic insomnia was administered a glycerol tincture containing the cannabigerol anion before sleep.

[16] = system: individual who presented with Inflammatory Bowel Disease; assay: Case report: Inflammatory Bowel Disease; type: in vivo, humans; details: glycerol tincture
Procedure: An individual who presented with Inflammatory Bowel Disease was administered a glycerol tincture containing the cannabigerol anion.

[17] = system: individual who presented with plaque psoriasis; assay: Case report: plaque psoriasis; type: in vivo, humans; details: glycerol formulation, topical
Text: An individual who presented with plaque psoriasis topically administered a glycerol formulation containing the cannabigerol anion.

[18] = system: Female Sabra mice; assay: Zymosan A right hind paw arthritis model: paw swelling (calipers) and pain (Von Frey); type: in vivo; details: relative to vehicle control groups, 1-64 mg/kg/day oral gavage for one month; for right hind paw inflammation: swelling at 1, 2, 6, 12, 24 hours after zymosan A; for right hind paw pain: Von Frey hair aesthesiometer
Procedure: (§1) Female Sabra mice are administered either vehicle or a cannabinoid. The cannabinoid is selected from 2-geranyl-5-pentylbenzene-1,3-diol (“cannabigerol”) and 2-geranyl-5-propylbenzene-1,3-diol (“cannabigerovarin”). The cannabinoid is administered at an amount of either 1, 2, 4, 8, 16, 32, or 64 milligrams cannabinoid per kilogram mouse body weight per day by oral gavage beginning when they are two months old.
(§2) Following one month of administration of either vehicle or a cannabinoid, 30 microliters of a 2 percent weight-by-volume suspension of zymosan A in saline is injected into each right hind paw of the mice. Inflammation is measured with calipers to determine right hind paw swelling at 1, 2, 6, 12, and 24 hours following the zymosan A injection relative to left hind paw. Pain is measured with a Von Frey hair aesthesiometer to determine right hind paw sensitivity to force relative to left hind paw. Serum TNF-alpha concentration is measured at 24 hours by enzyme-linked immunosorbent assay.

[19] = system: TNF-alpha; assay: Serum TNF-alpha by enzyme-linked immunosorbent assay in zymosan A paw model; type: in vivo, mice; details: relative to vehicle control groups; 24 hours after zymosan A; 1-64 mg/kg/day oral gavage
Procedure: as §1, §2

[20] = system: neutrophil-mediated inflammation; assay: Zymosan A knee arthritis model: neutrophil elastase imaging and transcript RT-PCR; type: in vivo; details: male C57BL/6J mice; for imaged right knee neutrophil elastase: relative to vehicle control group, imaged 4 hours post-injection, 1-64 mg/kg/day oral gavage; for adamts4 transcripts / myeloperoxidase transcripts / neutrophil elastase transcripts: relative to vehicle control groups, real-time PCR
Procedure: Male C57BL/6J mice are administered either vehicle or a cannabinoid. The cannabinoid is selected from cannabigerol and cannabigerovarin. The cannabinoid is administered at an amount of either 1, 2, 4, 8, 16, 32, or 64 milligrams cannabinoid per kilogram mouse body weight per day by oral gavage beginning when they are two months old.
Following one month of administration, mice are anesthetized with isoflurane and then 180 micrograms of zymosan A in saline is injected into the right knee of each mouse. Equivalent volumes of saline are injected into the left knee of each mouse. Mice are then injected with Neutrophil Elastase 680 FAST imaging probe (Perkin Elmer, Massachusetts, United States) and imaged 4 hours post-injection using an IVIS Spectrum In Vivo Imaging System (Perkin Elmer) to measure neutrophil-mediated inflammation. Mouse RNA is extracted and purified, and then relative adamts4 transcript, relative neutrophil elastase transcript, and relative myeloperoxidase transcript concentrations are measured following reverse transcription using real-time polymerase chain reactions.

[21] = system: Mice fed a high-fat diet; assay: Diet-induced obesity model: body weight, serum ALT/AST, liver steatosis; type: in vivo; details: 1-64 mg/kg/day oral gavage for two months; for liver steatosis: hematoxylin and eosin staining
Procedure: Mice are fed either a control standard diet or a high-fat diet beginning when they are two months old. The mice are concomitantly administered either vehicle or a cannabinoid selected from cannabigerol and cannabigerovarin at an amount of either 1, 2, 4, 8, 16, 32, or 64 milligrams cannabinoid per kilogram mouse body weight per day by oral gavage.
Mouse body weights are measured daily. The mice are sacrificed when they are four months old following two months of the diet, cannabinoid (or vehicle), and weighing. Serum alanine aminotransferase (“ALT”) and serum aspartate aminotransferase (“AST”) are measured using a Reflotran Plus blood chemistry system (Roche, Switzerland). Mouse livers are fixed and then stained with hematoxylin and eosin to visualize liver steatosis.

| Structure (SMILES) | right hind paw inflammation [18] | right hind paw pain [18] | serum TNF-alpha concentration [19] | imaged right knee neutrophil elastase [20] | adamts4 transcripts [20] | myeloperoxidase transcripts [20] | neutrophil elastase transcripts [20] | body weight [21] | serum ALT [21] | serum AST [21] | liver steatosis [21] | also measured |
| --- | --- | --- | --- | --- | --- | --- | --- | --- | --- | --- | --- | --- |
| C=C(C)C1CCC(C)=CC1c1c(O)cc(CCCCC)cc1O (stereo not shown) [cannabidiol anion, 2-[6-isopropenyl-3-methylcyclohex-2-enyl]-3-hydroxy-5-pentylphenolate] |  |  |  |  |  |  |  |  |  |  |  | hip pain and lower back pain (self-reported) [1]: notable alleviation of hip pain and lower back pain within minutes of ingestion; chronic pain (self-reported) [2]: alleviation of pain that significantly improved their standard of living; mobility and knee pain (self-reported) [3]: improved mobility and alleviation of knee pain within minutes of ingestion; back pain (self-reported) [4]: notable alleviation of the back pain within minutes of ingestion; social anxiety and performance during business meeting (self-reported) [5]: reduced anxiety and improved performance during the business meeting; hip pain (self-reported) [6]: notable alleviation of the hip pain within minutes of ingestion; treatment of arthritis compared with hydroxychloroquine (self-reported) [7]: more effective at treating their arthritis than hydroxychloroquine; throat pain (self-reported) [8]: notable alleviation of throat pain within minutes of ingestion; anxiety during drive to airport (self-reported) ([9]; beverage containing the anion, before driving): notable absence of anxiety; back pain (self-reported) [10]: notable alleviation of the back pain within minutes of ingestion; seizures (reported by owners) [11]: both instantaneously and consistently arrested multiple seizures in the dog; sleep quality (self-reported) [12]: significant improvement in sleep quality |
| CCCCCc1cc(O)c(C/C=C(\C)CCC=C(C)C)c(O)c1 [cannabigerol anion, 2-geranyl-3-hydroxy-5-pentylphenolate] |  |  |  |  |  |  |  |  |  |  |  | peripheral neuropathy symptoms (self-reported) [13]: significant improvement in their peripheral neuropathy symptoms; symptoms of Crohn's disease (self-reported) [14]: significant improvement in their symptoms of Crohn's disease; chronic anxiety symptoms (self-reported) ([9]; glycerol tincture): significant improvement in their anxiety symptoms; onset and quality of sleep (self-reported) [15]: significant improvement in the onset and quality of their sleep; symptoms of Inflammatory Bowel Disease (self-reported) [16]: significant improvement in their symptoms of Inflammatory Bowel Disease; plaque psoriasis symptoms (self-reported) [17]: significant improvement in their plaque psoriasis symptoms |
| CCCCCc1cc(O)c(C/C=C(\C)CCC=C(C)C)c(O)c1 [cannabigerol, 2-geranyl-5-pentylbenzene-1,3-diol] | dose-dependent reduction | dose-dependent reduction | dose-dependent reduction | dose-dependent reduction | dose-dependent reduction | dose-dependent reduction | dose-dependent reduction | dose-dependent reduction | dose-dependent reduction | dose-dependent reduction | dose-dependent reduction |  |
| CCCc1cc(O)c(C/C=C(\C)CCC=C(C)C)c(O)c1 [cannabigerovarin, 2-geranyl-5-propylbenzene-1,3-diol] | dose-dependent reduction | dose-dependent reduction | dose-dependent reduction | dose-dependent reduction | dose-dependent reduction | dose-dependent reduction | dose-dependent reduction | dose-dependent reduction | dose-dependent reduction | dose-dependent reduction | dose-dependent reduction |  |

— patent publication US20240131040A1, “COMPOSITIONS AND METHODS RELATED TO CANNABINOID ANIONS” (NATURAL EXTRACTION SYSTEMS, LLC, priority 2021, published 2024)
